Columns and labels:
Test in all cases: Kinase selectivity panel
Assay type in all cases: biochemical
MST3(h) = molecular target: T1, MST3(h) (Homo sapiens, UniProt Q9Y6E0); conditions: read-out: Inhibition(%) @ 1 µM RK-019
T1 construct: purchased Eurofins Discovery Services (KinaseProfiler)
Method in brief: (§1)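 Read-out is percent inhibition from an ATP-site competition binding assay, compound at 1 µM, recombinant human kinases.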

Plk4(h) = molecular target: T2, Plk4(h) (Homo sapiens, UniProt O00444); conditions: read-out: Inhibition(%) @ 1 µM RK-019
T2 construct: purchased Eurofins Discovery Services (KinaseProfiler)
Method in brief: as §1

AMPKα1(h) = molecular target: T3, AMPKα1(h) (Homo sapiens, UniProt Q13131); conditions: read-out: Inhibition(%) @ 1 µM RK-019
T3 construct: purchased Eurofins Discovery Services (KinaseProfiler)
Method in brief: as §1

CaMKK1(h) = molecular target: T4, CaMKK1(h) (Homo sapiens, UniProt Q8N5S9); conditions: read-out: Inhibition(%) @ 1 µM RK-019
T4 construct: purchased Eurofins Discovery Services (KinaseProfiler)
T4 sequence (Q8N5S9 whole entry): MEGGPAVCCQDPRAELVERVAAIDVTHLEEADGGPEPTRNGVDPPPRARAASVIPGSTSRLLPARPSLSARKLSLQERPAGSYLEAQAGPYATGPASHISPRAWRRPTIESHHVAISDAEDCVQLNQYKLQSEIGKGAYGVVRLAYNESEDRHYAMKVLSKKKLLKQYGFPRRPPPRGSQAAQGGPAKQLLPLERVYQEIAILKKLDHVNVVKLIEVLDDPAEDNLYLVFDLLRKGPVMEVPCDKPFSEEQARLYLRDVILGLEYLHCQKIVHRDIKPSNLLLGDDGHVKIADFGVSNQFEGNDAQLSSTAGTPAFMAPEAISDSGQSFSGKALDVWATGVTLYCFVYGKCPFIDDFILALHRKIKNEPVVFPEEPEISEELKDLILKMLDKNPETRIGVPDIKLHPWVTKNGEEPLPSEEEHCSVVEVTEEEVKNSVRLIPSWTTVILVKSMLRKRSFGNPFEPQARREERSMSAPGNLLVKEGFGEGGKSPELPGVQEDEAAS
Method in brief: as §1

GSK3β(h) = molecular target: T5, GSK3β(h) (Homo sapiens, UniProt P49841); conditions: read-out: Inhibition(%) @ 1 µM RK-019
T5 construct: purchased Eurofins Discovery Services (KinaseProfiler)
Method in brief: as §1

CDKL4(h) = molecular target: T6, CDKL4(h) (Homo sapiens, UniProt Q5MAI5); conditions: read-out: Inhibition(%) @ 1 µM RK-019
T6 construct: purchased Eurofins Discovery Services (KinaseProfiler)
Method in brief: as §1

Plk3(h) = molecular target: T7, Plk3(h) (Homo sapiens, UniProt Q9H4B4); conditions: read-out: Inhibition(%) @ 1 µM RK-019
T7 construct: purchased Eurofins Discovery Services (KinaseProfiler)
Method in brief: as §1

EphA4(h) = molecular target: T8, EphA4(h) (Homo sapiens, UniProt P54764); conditions: read-out: Inhibition(%) @ 1 µM RK-019
T8 construct: purchased Eurofins Discovery Services (KinaseProfiler)
Method in brief: as §1

Tie2(Y897S)(h) = molecular target: T9, Tie2(Y897S)(h) (Homo sapiens, UniProt Q02763, Y897S); conditions: read-out: Inhibition(%) @ 1 µM RK-019
T9 construct: purchased Eurofins Discovery Services (KinaseProfiler)
Method in brief: as §1

TTBK1(h) = molecular target: T10, TTBK1(h) (Homo sapiens, UniProt Q5TCY1); conditions: read-out: Inhibition(%) @ 1 µM RK-019
T10 construct: purchased Eurofins Discovery Services (KinaseProfiler)
Method in brief: as §1

CDK6/cyclinD3(h) = molecular target: T11, CDK6/cyclinD3(h) (Homo sapiens, UniProt Q00534); conditions: read-out: Inhibition(%) @ 1 µM RK-019
T11 construct: purchased Eurofins Discovery Services (KinaseProfiler)
Method in brief: as §1

CDKL1(h) = molecular target: T12, CDKL1(h) (Homo sapiens, UniProt Q00532); conditions: read-out: Inhibition(%) @ 1 µM RK-019
T12 construct: purchased Eurofins Discovery Services (KinaseProfiler)
Method in brief: as §1

VRK2(h) = molecular target: T13, VRK2(h) (Homo sapiens, UniProt Q86Y07); conditions: read-out: Inhibition(%) @ 1 µM RK-019
T13 construct: purchased Eurofins Discovery Services (KinaseProfiler)
Method in brief: as §1

CaMKI(h) = molecular target: T14, CaMKI(h) (Homo sapiens, UniProt Q14012); conditions: read-out: Inhibition(%) @ 1 µM RK-019
T14 construct: purchased Eurofins Discovery Services (KinaseProfiler)
Method in brief: as §1

Met(D1246H)(h) = molecular target: T15, Met(D1246H)(h) (Homo sapiens, UniProt P08581, D1228H); conditions: read-out: Inhibition(%) @ 1 µM RK-019
T15 construct: purchased Eurofins Discovery Services (KinaseProfiler)
Method in brief: as §1

Abl(m) = molecular target: T16, Abl(m) (Mus musculus, UniProt P00520); conditions: read-out: Inhibition(%) @ 1 µM RK-019
T16 construct: purchased Eurofins Discovery Services (KinaseProfiler)
T16 sequence (P00520 27-1123 limits assumed): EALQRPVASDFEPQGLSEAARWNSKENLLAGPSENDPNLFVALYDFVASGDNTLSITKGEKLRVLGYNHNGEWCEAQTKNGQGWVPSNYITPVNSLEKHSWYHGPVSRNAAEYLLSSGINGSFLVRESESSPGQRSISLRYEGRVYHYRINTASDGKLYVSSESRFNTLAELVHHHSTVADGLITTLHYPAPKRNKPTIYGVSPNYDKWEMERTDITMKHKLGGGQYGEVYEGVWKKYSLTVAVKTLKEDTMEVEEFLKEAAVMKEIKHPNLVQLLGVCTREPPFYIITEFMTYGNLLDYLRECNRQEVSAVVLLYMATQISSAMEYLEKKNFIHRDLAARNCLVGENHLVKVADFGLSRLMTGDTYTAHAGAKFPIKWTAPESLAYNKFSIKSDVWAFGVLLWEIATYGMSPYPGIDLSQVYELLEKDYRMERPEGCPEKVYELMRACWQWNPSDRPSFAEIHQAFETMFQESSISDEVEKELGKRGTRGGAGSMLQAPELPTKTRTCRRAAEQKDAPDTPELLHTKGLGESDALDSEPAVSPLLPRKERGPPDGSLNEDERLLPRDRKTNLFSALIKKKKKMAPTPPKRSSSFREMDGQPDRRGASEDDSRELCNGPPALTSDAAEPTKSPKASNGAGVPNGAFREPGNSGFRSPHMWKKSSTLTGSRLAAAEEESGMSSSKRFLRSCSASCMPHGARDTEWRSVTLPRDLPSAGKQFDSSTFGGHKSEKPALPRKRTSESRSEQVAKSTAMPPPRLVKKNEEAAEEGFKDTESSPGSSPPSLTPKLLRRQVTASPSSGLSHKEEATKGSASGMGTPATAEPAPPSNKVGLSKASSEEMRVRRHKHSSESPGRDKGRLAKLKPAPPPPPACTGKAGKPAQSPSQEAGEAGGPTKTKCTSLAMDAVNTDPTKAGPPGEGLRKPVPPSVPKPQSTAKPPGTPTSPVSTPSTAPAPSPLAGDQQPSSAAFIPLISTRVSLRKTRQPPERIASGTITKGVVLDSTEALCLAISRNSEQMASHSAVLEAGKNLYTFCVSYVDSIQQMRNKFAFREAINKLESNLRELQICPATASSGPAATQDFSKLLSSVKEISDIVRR

DDR1(h) = molecular target: T17, DDR1(h) (Homo sapiens, UniProt Q08345); conditions: read-out: Inhibition(%) @ 1 µM RK-019
T17 construct: purchased Eurofins Discovery Services (KinaseProfiler)
Method in brief: as §1

Wee1(h) = molecular target: T18, Wee1(h) (Homo sapiens, UniProt P30291); conditions: read-out: Inhibition(%) @ 1 µM RK-019
T18 construct: purchased Eurofins Discovery Services (KinaseProfiler)
Method in brief: as §1

ASK1(h) = molecular target: T19, ASK1(h) (Homo sapiens, UniProt Q99683); conditions: read-out: Inhibition(%) @ 1 µM RK-019
T19 construct: purchased Eurofins Discovery Services (KinaseProfiler)
Method in brief: as §1

MAPK2(m) = molecular target: T20, MAPK2(m) (Mus musculus, UniProt P63085); conditions: read-out: Inhibition(%) @ 1 µM RK-019
T20 construct: purchased Eurofins Discovery Services (KinaseProfiler)

TLK1(h) = molecular target: T21, TLK1(h) (Homo sapiens, UniProt Q9UKI8); conditions: read-out: Inhibition(%) @ 1 µM RK-019
T21 construct: purchased Eurofins Discovery Services (KinaseProfiler)
Method in brief: as §1

Flt4(h) = molecular target: T22, Flt4(h) (Homo sapiens, UniProt P35916)
T22 construct: purchased Eurofins Discovery Services (KinaseProfiler)
T22 sequence (P35916 25-1363): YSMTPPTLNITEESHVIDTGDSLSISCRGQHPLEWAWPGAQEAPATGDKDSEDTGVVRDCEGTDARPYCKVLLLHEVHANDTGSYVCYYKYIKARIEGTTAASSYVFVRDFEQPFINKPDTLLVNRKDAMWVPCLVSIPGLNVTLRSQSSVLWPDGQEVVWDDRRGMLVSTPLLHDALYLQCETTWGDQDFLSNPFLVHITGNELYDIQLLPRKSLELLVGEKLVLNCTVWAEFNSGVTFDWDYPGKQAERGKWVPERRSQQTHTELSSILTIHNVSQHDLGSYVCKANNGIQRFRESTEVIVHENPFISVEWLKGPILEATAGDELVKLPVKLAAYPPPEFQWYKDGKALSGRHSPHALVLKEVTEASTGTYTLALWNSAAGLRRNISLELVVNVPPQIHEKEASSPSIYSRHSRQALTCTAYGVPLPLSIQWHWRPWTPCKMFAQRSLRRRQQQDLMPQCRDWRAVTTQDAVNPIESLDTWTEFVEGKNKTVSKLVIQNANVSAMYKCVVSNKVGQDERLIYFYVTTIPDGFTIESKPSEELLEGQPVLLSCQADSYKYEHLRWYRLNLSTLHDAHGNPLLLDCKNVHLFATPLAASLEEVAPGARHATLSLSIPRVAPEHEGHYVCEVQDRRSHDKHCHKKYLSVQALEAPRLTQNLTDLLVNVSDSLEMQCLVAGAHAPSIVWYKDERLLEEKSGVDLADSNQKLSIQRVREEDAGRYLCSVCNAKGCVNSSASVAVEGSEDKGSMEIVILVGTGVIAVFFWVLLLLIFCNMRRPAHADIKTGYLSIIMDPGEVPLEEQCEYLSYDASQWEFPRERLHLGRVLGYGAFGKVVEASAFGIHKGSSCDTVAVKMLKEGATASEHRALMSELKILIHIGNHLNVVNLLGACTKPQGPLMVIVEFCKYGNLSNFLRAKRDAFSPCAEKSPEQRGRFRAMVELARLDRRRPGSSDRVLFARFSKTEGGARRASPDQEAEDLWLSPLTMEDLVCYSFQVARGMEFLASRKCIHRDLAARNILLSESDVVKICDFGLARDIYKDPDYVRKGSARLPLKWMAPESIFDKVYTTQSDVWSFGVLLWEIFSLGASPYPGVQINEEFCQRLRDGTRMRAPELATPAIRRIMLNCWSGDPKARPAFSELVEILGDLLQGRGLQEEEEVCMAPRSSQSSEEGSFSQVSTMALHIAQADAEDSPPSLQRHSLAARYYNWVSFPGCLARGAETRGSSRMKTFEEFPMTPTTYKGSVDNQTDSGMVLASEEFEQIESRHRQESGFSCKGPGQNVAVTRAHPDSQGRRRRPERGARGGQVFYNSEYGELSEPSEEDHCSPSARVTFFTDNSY
Method in brief: as §1

SAPK2a(T106M)(h) = molecular target: T23, SAPK2a(T106M)(h) (Homo sapiens, UniProt Q16539, T106M); conditions: read-out: Inhibition(%) @ 1 µM RK-019
T23 construct: purchased Eurofins Discovery Services (KinaseProfiler)
Method in brief: as §1

DYRK1B(h) = molecular target: T24, DYRK1B(h) (Homo sapiens, UniProt Q9Y463); conditions: read-out: Inhibition(%) @ 1 µM RK-019
T24 construct: purchased Eurofins Discovery Services (KinaseProfiler)
Method in brief: as §1

B-Raf(h) = molecular target: T25, B-Raf(h) (Homo sapiens, UniProt P15056); conditions: read-out: Inhibition(%) @ 1 µM RK-019
T25 construct: purchased Eurofins Discovery Services (KinaseProfiler)
Method in brief: as §1

Lyn(h) = molecular target: T26, Lyn(h) (Homo sapiens, UniProt P07948)
T26 construct: purchased Eurofins Discovery Services (KinaseProfiler)
T26 sequence (P07948 whole entry): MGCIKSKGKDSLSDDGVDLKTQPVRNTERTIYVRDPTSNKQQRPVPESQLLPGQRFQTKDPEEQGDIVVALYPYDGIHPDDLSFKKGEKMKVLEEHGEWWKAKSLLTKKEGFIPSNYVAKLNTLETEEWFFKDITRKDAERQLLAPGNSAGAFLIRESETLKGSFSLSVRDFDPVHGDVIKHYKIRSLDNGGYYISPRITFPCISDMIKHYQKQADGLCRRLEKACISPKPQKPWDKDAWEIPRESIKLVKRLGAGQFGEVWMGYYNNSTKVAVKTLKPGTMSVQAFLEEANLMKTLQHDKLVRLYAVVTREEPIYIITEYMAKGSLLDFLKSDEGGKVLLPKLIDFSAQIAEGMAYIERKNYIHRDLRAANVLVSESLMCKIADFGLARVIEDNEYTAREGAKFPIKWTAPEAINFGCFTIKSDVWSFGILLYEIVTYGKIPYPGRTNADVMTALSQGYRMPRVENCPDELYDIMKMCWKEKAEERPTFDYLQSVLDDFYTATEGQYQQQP
Method in brief: as §1

PhKγ2(h) = molecular target: T27, PhKγ2(h) (Homo sapiens, UniProt P15735); conditions: read-out: Inhibition(%) @ 1 µM RK-019
T27 construct: purchased Eurofins Discovery Services (KinaseProfiler)
Method in brief: as §1

MAPKAP-K3(h) = molecular target: T28, MAPKAP-K3(h) (Homo sapiens, UniProt Q16644); conditions: read-out: Inhibition(%) @ 1 µM RK-019
T28 construct: purchased Eurofins Discovery Services (KinaseProfiler)
Method in brief: as §1

IKKβ(h) = molecular target: T29, IKKβ(h) (Homo sapiens, UniProt O14920); conditions: read-out: Inhibition(%) @ 1 µM RK-019
T29 construct: purchased Eurofins Discovery Services (KinaseProfiler)
Method in brief: as §1

Yes(h) = molecular target: T30, Yes(h) (Homo sapiens, UniProt P07947); conditions: read-out: Inhibition(%) @ 1 µM RK-019
T30 construct: purchased Eurofins Discovery Services (KinaseProfiler)
T30 sequence (P07947 whole entry): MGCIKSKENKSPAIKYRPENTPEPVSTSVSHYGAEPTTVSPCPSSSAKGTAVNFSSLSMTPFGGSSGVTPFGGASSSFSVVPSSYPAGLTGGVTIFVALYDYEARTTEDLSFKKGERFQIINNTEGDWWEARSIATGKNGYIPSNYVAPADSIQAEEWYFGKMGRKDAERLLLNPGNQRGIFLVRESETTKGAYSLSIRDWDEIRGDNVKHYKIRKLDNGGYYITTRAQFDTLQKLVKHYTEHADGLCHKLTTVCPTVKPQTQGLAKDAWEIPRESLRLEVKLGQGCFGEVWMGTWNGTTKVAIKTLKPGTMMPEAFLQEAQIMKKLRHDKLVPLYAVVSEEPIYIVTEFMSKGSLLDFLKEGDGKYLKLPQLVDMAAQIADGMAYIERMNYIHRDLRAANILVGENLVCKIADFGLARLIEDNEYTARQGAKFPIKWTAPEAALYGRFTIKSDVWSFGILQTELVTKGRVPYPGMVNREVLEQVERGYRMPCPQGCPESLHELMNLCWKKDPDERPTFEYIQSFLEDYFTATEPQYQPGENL
Method in brief: as §1

Pyk2(h) = molecular target: T31, Pyk2(h) (Homo sapiens, UniProt Q14289); conditions: read-out: Inhibition(%) @ 1 µM RK-019
T31 construct: purchased Eurofins Discovery Services (KinaseProfiler)
Method in brief: as §1

EphB1(h) = molecular target: T32, EphB1(h) (Homo sapiens, UniProt P54762); conditions: read-out: Inhibition(%) @ 1 µM RK-019
T32 construct: purchased Eurofins Discovery Services (KinaseProfiler)
Method in brief: as §1

Ret(h) = molecular target: T33, Ret(h) (Homo sapiens, UniProt P07949)
T33 construct: purchased Eurofins Discovery Services (KinaseProfiler)
T33 sequence (P07949 29-1114): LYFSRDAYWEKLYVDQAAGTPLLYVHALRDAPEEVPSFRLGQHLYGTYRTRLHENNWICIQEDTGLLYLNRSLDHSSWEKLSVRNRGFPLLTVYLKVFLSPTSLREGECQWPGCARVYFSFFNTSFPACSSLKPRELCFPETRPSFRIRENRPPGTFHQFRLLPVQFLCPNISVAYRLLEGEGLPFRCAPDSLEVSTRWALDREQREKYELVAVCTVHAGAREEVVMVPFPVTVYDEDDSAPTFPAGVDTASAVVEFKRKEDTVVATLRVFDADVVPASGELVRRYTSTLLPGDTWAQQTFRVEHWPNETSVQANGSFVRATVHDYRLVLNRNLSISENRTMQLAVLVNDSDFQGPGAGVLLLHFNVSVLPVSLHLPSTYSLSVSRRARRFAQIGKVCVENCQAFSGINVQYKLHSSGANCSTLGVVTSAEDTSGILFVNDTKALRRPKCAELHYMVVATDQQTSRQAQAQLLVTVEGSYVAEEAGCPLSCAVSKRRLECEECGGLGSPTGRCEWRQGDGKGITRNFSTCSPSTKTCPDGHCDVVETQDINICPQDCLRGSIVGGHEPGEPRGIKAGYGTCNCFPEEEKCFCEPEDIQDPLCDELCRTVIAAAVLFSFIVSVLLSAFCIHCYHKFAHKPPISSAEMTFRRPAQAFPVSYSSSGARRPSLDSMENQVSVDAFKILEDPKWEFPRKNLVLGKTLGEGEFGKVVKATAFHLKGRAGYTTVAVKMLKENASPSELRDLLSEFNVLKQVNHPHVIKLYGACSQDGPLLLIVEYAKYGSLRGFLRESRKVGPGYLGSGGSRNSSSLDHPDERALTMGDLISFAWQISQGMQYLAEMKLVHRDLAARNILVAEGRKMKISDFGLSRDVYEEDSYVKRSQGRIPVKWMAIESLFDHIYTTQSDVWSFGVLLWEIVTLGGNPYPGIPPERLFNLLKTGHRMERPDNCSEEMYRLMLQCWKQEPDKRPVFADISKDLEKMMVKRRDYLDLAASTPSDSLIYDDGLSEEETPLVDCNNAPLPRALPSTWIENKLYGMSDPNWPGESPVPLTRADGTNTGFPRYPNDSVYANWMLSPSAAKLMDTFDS
Method in brief: as §1

MAPK2(h) = molecular target: T34, MAPK2(h) (Homo sapiens, UniProt P28482); conditions: read-out: Inhibition(%) @ 1 µM RK-019
T34 construct: purchased Eurofins Discovery Services (KinaseProfiler)
Method in brief: as §1

ChaK1(h) = molecular target: T35, ChaK1(h) (Homo sapiens, UniProt Q96QT4); conditions: read-out: Inhibition(%) @ 1 µM RK-019
T35 construct: purchased Eurofins Discovery Services (KinaseProfiler)
Method in brief: as §1

EphA2(h) = molecular target: T36, EphA2(h) (Homo sapiens, UniProt P29317); conditions: read-out: Inhibition(%) @ 1 µM RK-019
T36 construct: purchased Eurofins Discovery Services (KinaseProfiler)
Method in brief: as §1

SMILES: COc1cc(OC)cc(N(CCN[C@H](C)CO)c2ccc3ncc(-c4cnn(C)c4)c(=O)n3c2)c1 [RK-019, (R)-7-((3,5-dimethoxyphenyl) (2-((1-hydroxypropan-2-yl)amino)ethyl)amino)-3-(1-methyl-1H-pyrazol-4-yl)-4H-pyrido [1,2-a]pyrimidin-4-one]
- activity at 1 µM (MST3(h)): 122%
- activity at 1 µM (Plk4(h)): 91%
- activity at 1 µM (AMPKα1(h)): 107%
- activity at 1 µM (CaMKK1(h)): 105%
- activity at 1 µM (GSK3β(h)): 96%
- activity at 1 µM (CDKL4(h)): 90%
- activity at 1 µM (Plk3(h)): 101%
- activity at 1 µM (EphA4(h)): 101%
- activity at 1 µM (Tie2(Y897S)(h)): 77%
- activity at 1 µM (TTBK1(h)): 90%
- activity at 1 µM (CDK6/cyclinD3(h)): 106%
- activity at 1 µM (CDKL1(h)): 97%
- activity at 1 µM (VRK2(h)): 104%
- activity at 1 µM (CaMKI(h)): 101%
- activity at 1 µM (Met(D1246H)(h)): 89%
- activity at 1 µM (Abl(m)): 17%
- activity at 1 µM (DDR1(h)): 19%
- activity at 1 µM (Wee1(h)): 92%
- activity at 1 µM (ASK1(h)): 118%
- activity at 1 µM (MAPK2(m)): 109%
- activity at 1 µM (TLK1(h)): 98%
- inhibition at 1 µM (Flt4(h); FLT4, 1 µM, read-out: inhibition (hit in panel)): > 90%
- activity at 1 µM (Flt4(h); Flt4(h), read-out: Inhibition(%) @ 1 µM RK-019): 3%
- activity at 1 µM (SAPK2a(T106M)(h)): 90%
- activity at 1 µM (DYRK1B(h)): 97%
- activity at 1 µM (B-Raf(h)): 124%
- inhibition at 1 µM (Lyn(h); LYN, 1 µM, read-out: inhibition (hit in panel)): > 90%
- activity at 1 µM (Lyn(h); Lyn(h), read-out: Inhibition(%) @ 1 µM RK-019): 6%
- activity at 1 µM (PhKγ2(h)): 88%
- activity at 1 µM (MAPKAP-K3(h)): 109%
- activity at 1 µM (IKKβ(h)): 90%
- activity at 1 µM (Yes(h)): 29%
- activity at 1 µM (Pyk2(h)): 112%
- activity at 1 µM (EphB1(h)): 58%
- inhibition at 1 µM (Ret(h); RET, 1 µM, read-out: inhibition (hit in panel)): > 90%
- activity at 1 µM (Ret(h); Ret(h), read-out: Inhibition(%) @ 1 µM RK-019): 5%
- activity at 1 µM (MAPK2(h)): 115%
- activity at 1 µM (ChaK1(h)): 100%
- activity at 1 µM (EphA2(h)): 61%

From paper PMC9532703, “A novel small molecule RK-019 inhibits FGFR2-amplification gastric cancer cell proliferation and induces apoptosis in vitro and in vivo” (Frontiers in Pharmacology, 2022)
